Experimental data as given in EP1984353B1, “AURORA KINASE MODULATORS AND METHOD OF USE” (Amgen, Inc, priority 2006, dated 2007).
Structures can show the parent of a compound that is named as a salt. Where two headings read alike, the source gives them in different places.

Assays:
[1] = target: T1, AuroraA-TPX2 (Homo sapiens, UniProt O14965); experiment: AuroraA-TPX2 Homogeneous Time Resolved Fluorescent (HTRF) kinase assay; type: biochemical
T1 construct: 20 µL of AuroraA-TPX2 KD GST; GST
T1 sequence (O14965 133-383 limits assumed): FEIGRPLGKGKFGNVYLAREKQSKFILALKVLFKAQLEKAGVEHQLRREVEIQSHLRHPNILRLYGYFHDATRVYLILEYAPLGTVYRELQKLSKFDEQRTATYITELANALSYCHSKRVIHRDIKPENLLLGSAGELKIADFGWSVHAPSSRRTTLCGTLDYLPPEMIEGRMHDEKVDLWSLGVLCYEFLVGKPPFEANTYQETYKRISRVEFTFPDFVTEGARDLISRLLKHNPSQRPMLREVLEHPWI
T1 sequence (Q9ULW0 1-43 partner limits assumed): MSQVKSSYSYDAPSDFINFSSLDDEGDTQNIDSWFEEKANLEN
How it was run: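 Aurora-A/TPX2 phosphorylates biotinylated PLK peptide (about 1 µM) with ATP for about 120 min in 60 mM HEPES pH 7.5, 10 mM MgCl2, 2 mM DTT. EDTA quench, overnight equilibration with Eu-anti-phosphoPLK antibody and SA-APC; HTRF read at 615/655 nm after 320 nm excitation.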

[2] = target: T2, AuroraB (Homo sapiens, UniProt Q96GD4); experiment: AuroraB Homogeneous Time Resolved Fluorescent (HTRF) kinase assay; type: biochemical
T2 construct: 20 µL of AuroraB FL His; His
How it was run: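 Full-length His-tagged AuroraB (400 pM) phosphorylates 0.1 µM biotinylated Histone H3 with 23 µM ATP (Km(app)) in HEPES pH 7.5 with Mg/Mn, about 90 min. EDTA-quenched; Eu-anti-phosphoHistoneH3 and SA-APC HTRF, 655/615 nm ratio as phosphorylation.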

[3] = average, given as class symbols, read-out: AurA/TP X2_ IC50_IP (Avg)
[4] = average, given as class symbols, read-out: AurB_ _IC50_IP (Avg)
[5] = average, given as numbers, unit inferred, read-out: AurA/TP X2_ IC50_IP (Avg)
[6] = average, given as numbers, unit inferred, read-out: AurB_ _IC50_IP (Avg)
[7] = read-out: average activity in the Aurora kinase A HTRF assay
[8] = read-out: average activity in the Aurora kinase B HTRF assay

T2 sequence (Q96GD4 whole entry): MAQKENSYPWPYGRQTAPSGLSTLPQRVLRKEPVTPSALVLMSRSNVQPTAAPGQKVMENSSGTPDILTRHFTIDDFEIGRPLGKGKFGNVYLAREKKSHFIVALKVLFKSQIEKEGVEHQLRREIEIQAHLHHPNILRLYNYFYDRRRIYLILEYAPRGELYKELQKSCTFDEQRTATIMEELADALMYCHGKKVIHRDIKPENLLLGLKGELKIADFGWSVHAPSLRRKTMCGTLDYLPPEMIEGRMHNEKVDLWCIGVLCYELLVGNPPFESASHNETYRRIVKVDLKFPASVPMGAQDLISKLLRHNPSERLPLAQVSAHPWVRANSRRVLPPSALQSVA

Row | Molecule | IC50 [1, 3] | IC50 [2, 4] | also measured
1 | Cc1csc(-c2nnc(Nc3ccc(Oc4ncccc4-c4ccnc5c4CCN5)cc3)c3ccccc23)n1 [compound 288, N-(4-((3-(2,3-dihydro-1H-pyrrolo[2,3-b]pyridin-4-yl)-2-pyridinyl)oxy)phenyl)-4-(4-methyl-1,3-thiazol-2-yl)-1-phthalazinamine] | ≤ 100 nM | 500 to 2500 nM | –
2 | COc1ccc(-c2nnc(Nc3ccc(Oc4ncccc4-c4ccnc(N)n4)cc3)c3ccccc23)cc1 [compound 320, N-(4-((3-(2-amino-4-pyrimidinyl)-2-pyridinyl)oxy)phenyl)-4-(4-(methyloxy)phenyl)-1-phthalazinamine] | ≤ 100 nM | ≤ 100 nM | –
3 | c1ccc(-c2nnc(Nc3ccc(Oc4ncccc4-c4ccnc(NCCCN5CCCCC5)n4)nc3)c3ccccc23)cc1 [compound 267, 4-phenyl-N-(6-((3-(2-((3-(1-piperidinyl)propyl)amino)-4-pyrimidinyl)-2-pyridinyl)oxy)-3-pyridinyl)-1-phthalazinamine] | – | – | IC50 [1, 5]: 96.4 nM; IC50 [2, 6]: 10.4 nM
4 | COc1ccc(F)cc1-c1nnc(Nc2ccc(Oc3ncccc3-c3ccnc(N)n3)nc2)c2ccccc12 [compound 381, N-(6-((3-(2-amino-4-pyrimidinyl)-2-pyridinyl)oxy)-3-pyridinyl)-4-(5-fluoro-2-(methyloxy)phenyl)-1-phthalazinamine] | 100 to 500 nM | ≤ 100 nM | –
5 | CCc1cc(-c2ccccc2)nnc1Nc1ccc(Oc2ncccc2-c2ccnc(NCCCN3CCN(C)CC3)n2)cc1 [compound 456, 4-ethyl-N-(4-((3-(2-((3-(4-methyl-1-piperazinyl)propyl)amino)-4-pyrimidinyl)-2-pyridinyl)oxy)phenyl)-6-phenyl-3-pyridazinamine] | ≤ 100 nM | ≤ 100 nM | –
6 | N-(4-((3-(2-amino-4-pyrimidinyl)-2-pyridinyl)oxy)phenyl)-4-(6-methyl-2-pyridinyl)-1-phthalazinamine [compound 271] | – | – | IC50 [1, 5]: 24.3 nM; IC50 [2, 6]: 1 nM
7 | Nc1nccc(-c2cccnc2Oc2ccc(Nc3nnc(-c4ccccc4OC(F)(F)F)c4ccccc34)cc2)n1 [compound 382, N-(4-((3-(2-amino-4-pyrimidinyl)-2-pyridinyl)oxy)phenyl)-4-(2-((trifluoromethyl)oxy)phenyl)-1-phthalazinamine] | 100 to 500 nM | ≤ 100 nM | –
8 | Nc1nccc(-c2cccnc2Oc2ccc(Nc3nnc(-c4cc(F)ccc4O)c4ccccc34)cn2)n1 [compound 387, 2-(4-((6-((3-(2-amino-4-pyrimidinyl)-2-pyridinyl)oxy)-3-pyridinyl)amino)-1-phthalazinyl)-4-fluorophenol] | ≤ 100 nM | ≤ 100 nM | –
9 | NC(=O)c1n[nH]cc1-c1cccnc1Oc1ccc(Nc2nnc(-c3ccccc3)c3ccccc23)cc1 [Example 241, 4-(2-(4-(4-phenylphthalazin-1-ylamino)phenoxy)pyridin-3-yl)-1H-pyrazole-3-carboxamide] | – | – | IC50 [1, 7]: ≤ 1000 nM; IC50 [2, 8]: ≤ 1000 nM
10 | CC(C)c1nnc(Nc2ccc(Oc3ncccc3-c3ccnc(N)n3)cc2)c2ccccc12 [compound 273, N-(4-((3-(2-amino-4-pyrimidinyl)-2-pyridinyl)oxy)phenyl)-4-(1-methylethyl)-1-phthalazinamine] | 100 to 500 nM | ≤ 100 nM | –
11 | Nc1nccc(-c2cccnc2Oc2ccc(Nc3nnc(-c4ccc(CN5CCCC5)cc4)c4ccccc34)cc2)n1 [Example Method E, N-(4-(3-(2-aminopyrimidin-4-yl)pyridin-2-yloxy)phenyl)-4-(4-(pyrrolidin-1-ylmethyl)phenyl)phthalazin-1-amine] | – | – | IC50 [1, 7]: ≤ 1000 nM; IC50 [2, 8]: ≤ 1000 nM
12 | Nc1nccc(-c2cccnc2Oc2ccc(Nc3nnc(-c4cccc(CCO)c4)c4ccccc34)cc2)n1 [compound 355, 2-(3-(4-((4-((3-(2-amino-4-pyrimidinyl)-2-pyridinyl)oxy)phenyl)amino)-1-phthalazinyl)phenyl)ethanol] | ≤ 100 nM | ≤ 100 nM | –
13 | c1ccc(-c2nnc(Nc3ncc(Oc4ncccc4-c4ccncc4)cn3)c3ccccc23)cc1 [compound 311, N-(5-(3,4'-bipyridin-2-yloxy)-2-pyrimidinyl)-4-phenyl-1-phthalazinamine] | 500 to 2500 nM | 500 to 2500 nM | –
14 | CN1C[C@@H]2C[C@H]1CN2c1nnc(Nc2ccc(Oc3ncccc3-c3ccnc(N)n3)cc2)c2ccccc12 [compound 258, N-(4-((3-(2-amino-4-pyrimidinyl)-2-pyridinyl)oxy)phenyl)-4-((1S,4S)-5-methyl-2,5-diazabicyclo[2.2.1]hept-2-yl)-1-phthalazinamine] | 500 to 2500 nM | 100 to 500 nM | –
15 | Nc1nccc(-c2cccnc2Oc2ccc(Nc3nnc(-c4cccc(CCCOP(=O)(O)O)c4)c4ccccc34)cc2)n1 [compound 362, 3-(3-(4-((4-((3-(2-amino-4-pyrimidinyl)-2-pyridinyl)oxy)phenyl)amino)-1-phthalazinyl)phenyl)propyl dihydrogen phosphate] | ≤ 100 nM | ≤ 100 nM | –
16 | Nc1nccc(-c2cccnc2Oc2ccc(Nc3nnc(-c4ccccc4O)c4ccccc34)cc2)n1 [compound 364, 2-(4-((4-((3-(2-amino-4-pyrimidinyl)-2-pyridinyl)oxy)phenyl)amino)-1-phthalazinyl)phenol] | 100 to 500 nM | ≤ 100 nM | –
17 | Fc1cnc(NCCCN2CCCCC2)nc1-c1cccnc1Oc1ccc(Nc2nnc(-c3ccccc3)c3ccccc23)cc1 [compound 403, N-(4-((3-(5-fluoro-2-((3-(1-piperidinyl)propyl)amino)-4-pyrimidinyl)-2-pyridinyl)oxy)phenyl)-4-phenyl-1-phthalazinamine] | ≤ 100 nM | ≤ 100 nM | –
18 | COc1ccc(-c2nnc(Nc3ccc(Oc4ncccc4-c4ccnc(N)n4)nc3)c3ccccc23)cc1 [compound 319, N-(6-((3-(2-amino-4-pyrimidinyl)-2-pyridinyl)oxy)-3-pyridinyl)-4-(4-(methyloxy)phenyl)-1-phthalazinamine] | ≤ 100 nM | ≤ 100 nM | –
19 | C[C@@H](O)c1cccc(-c2nnc(Nc3ccc(Oc4ncccc4-c4ccnc(N)n4)cc3)c3ccccc23)c1 [compound 361, (1R)-1-(3-(4-((4-((3-(2-amino-4-pyrimidinyl)-2-pyridinyl)oxy)phenyl)amino)-1-phthalazinyl)phenyl)ethanol] | ≤ 100 nM | ≤ 100 nM | –
20 | CCc1cc(-c2ccccc2)nnc1Nc1ccc(Oc2ncccc2-c2ccnc(NCCCN3CCCCC3)n2)nc1 [compound 450, 4-ethyl-6-phenyl-N-(6-((3-(2-((3-(1-piperidinyl)propyl)amino)-4-pyrimidinyl)-2-pyridinyl)oxy)-3-pyridinyl)-3-pyridazinamine] | 500 to 2500 nM | ≤ 100 nM | –
21 | CC1CN(CCCNc2nccc(-c3cccnc3Oc3ccc(Nc4nnc(-c5ccccc5)c5ccccc45)cc3)n2)CC(C)O1 (stereo not drawn) [compound 326, N-(4-((3-(2-((3-(2,6-dimethyl-4-morpholinyl)propyl)amino)-4-pyrimidinyl)-2-pyridinyl)oxy)phenyl)-4-phenyl-1-phthalazinamine] | ≤ 100 nM | ≤ 100 nM | –
22 | C[C@H](O)c1ccc(-c2nnc(Nc3ccc(Oc4ncccc4-c4ccnc(N)n4)cc3)c3ccccc23)cc1 [compound 257, (1S)-1-(4-(4-((4-((3-(2-amino-4-pyrimidinyl)-2-pyridinyl)oxy)phenyl)amino)-1-phthalazinyl)phenyl)ethanol] | ≤ 100 nM | ≤ 100 nM | –
23 | Nc1nccc(-c2cccnc2Oc2ccc(Nc3nnc(-c4cc(O)ccc4F)c4ccccc34)cn2)n1 [compound 379, 3-(4-((6-((3-(2-amino-4-pyrimidinyl)-2-pyridinyl)oxy)-3-pyridinyl)amino)-1-phthalazinyl)-4-fluorophenol] | ≤ 100 nM | ≤ 100 nM | –
24 | c1ccc(-c2nnc(Nc3ccc(Oc4ncccc4-c4ccnc(NCCCN5CCC5)n4)cc3)c3ccccc23)cc1 [compound 295, N-(4-((3-(2-((3-(1-azetidinyl)propyl)amino)-4-pyrimidinyl)-2-pyridinyl)oxy)phenyl)-4-phenyl-1-phthalazinamine] | 100 to 500 nM | ≤ 100 nM | –
25 | Cc1ccc(-c2nnc(Nc3ccc(Oc4ncccc4-c4ccnc(N)n4)cc3)c3ccccc23)nc1 [compound 396, N-(4-((3-(2-amino-4-pyrimidinyl)-2-pyridinyl)oxy)phenyl)-4-(5-methyl-2-pyridinyl)-1-phthalazinamine] | – | – | IC50 [1, 5]: 4.7 nM; IC50 [2, 6]: 0.8 nM
26 | O=P(O)(O)OCCCNc1nccc(-c2cccnc2Oc2ccc(Nc3nnc(-c4ccccc4)c4ccccc34)cc2)n1 [Example Method F, 3-(4-(2-(4-(4-phenylphthalazin-1-ylamino)phenoxy)pyridin-3-yl)pyrimidin-2-ylamino)propyl dihydrogen phosphate dihydrochloride] | – | – | IC50 [1, 7]: ≤ 100 nM; IC50 [2, 8]: ≤ 100 nM
27 | Nc1nccc(-c2cccnc2Oc2ccc(Nc3nnc(N4CCC(O)CC4)c4ccccc34)cc2)n1 [compound 358, 1-(4-((4-((3-(2-amino-4-pyrimidinyl)-2-pyridinyl)oxy)phenyl)amino)-1-phthalazinyl)-4-piperidinol] | 500 to 2500 nM | ≤ 100 nM | –
